Reference: ChEMBL document CHEMBL3991601, “The target landscape of clinical kinase drugs” (Science, 2017)
Calls of active or inactive are those of the source.

Columns and labels:
[1] = target: RAC-alpha serine/threonine-protein kinase (Homo sapiens, UniProt P31749)
[2] = target: Casein kinase I isoform delta (Homo sapiens, UniProt P48730)
[3] = target: Casein kinase I isoform gamma-1 (Homo sapiens, UniProt Q9HCP0)
[4] = target: T1, Cytochrome c1, heme protein, mitochondrial (Homo sapiens, UniProt P08574)
T1 sequence (P08574 whole entry): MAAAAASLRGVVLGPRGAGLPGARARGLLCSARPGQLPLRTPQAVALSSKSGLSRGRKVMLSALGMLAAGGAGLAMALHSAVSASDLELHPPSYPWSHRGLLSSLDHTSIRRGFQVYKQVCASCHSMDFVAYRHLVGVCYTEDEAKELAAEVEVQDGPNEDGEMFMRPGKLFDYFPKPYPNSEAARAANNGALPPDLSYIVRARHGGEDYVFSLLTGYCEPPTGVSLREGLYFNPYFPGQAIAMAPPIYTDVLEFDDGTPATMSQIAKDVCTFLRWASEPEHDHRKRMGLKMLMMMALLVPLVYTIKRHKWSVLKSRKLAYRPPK

[5] = target: Putative heat shock protein HSP 90-beta 2 (Homo sapiens, UniProt Q58FF8)
[6] = target: Mitogen-activated protein kinase 3 (Homo sapiens, UniProt P27361)
[7] = target: MAP/microtubule affinity-regulating kinase 3 (Homo sapiens, UniProt P27448)
[8] = target: S-adenosylmethionine synthase isoform type-2 (Homo sapiens, UniProt P31153)
[9] = target: T2, Phosphatidylinositol 5-phosphate 4-kinase type-2 alpha (Homo sapiens, UniProt P48426)
T2 sequence (P48426 whole entry): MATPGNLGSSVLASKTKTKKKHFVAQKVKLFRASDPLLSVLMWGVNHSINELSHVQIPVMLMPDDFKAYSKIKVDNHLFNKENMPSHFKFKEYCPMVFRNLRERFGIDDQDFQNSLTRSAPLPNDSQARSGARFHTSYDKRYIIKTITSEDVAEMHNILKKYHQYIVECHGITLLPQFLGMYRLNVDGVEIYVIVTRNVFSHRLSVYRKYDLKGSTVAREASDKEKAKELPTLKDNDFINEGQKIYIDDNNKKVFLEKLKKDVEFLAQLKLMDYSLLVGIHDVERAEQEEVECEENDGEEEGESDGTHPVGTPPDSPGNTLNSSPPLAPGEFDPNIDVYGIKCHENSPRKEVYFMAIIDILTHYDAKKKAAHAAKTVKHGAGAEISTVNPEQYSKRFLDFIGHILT

[10] = target: cAMP-dependent protein kinase catalytic subunit gamma (Homo sapiens, UniProt P22612)
[11] = target: Protein-tyrosine kinase 6 (Homo sapiens, UniProt Q13882)
[12] = target: Rho-associated protein kinase 2 (Homo sapiens, UniProt O75116)
[13] = target: T3, Tyrosine--tRNA ligase, cytoplasmic (Homo sapiens, UniProt P54577)
T3 sequence (P54577 whole entry): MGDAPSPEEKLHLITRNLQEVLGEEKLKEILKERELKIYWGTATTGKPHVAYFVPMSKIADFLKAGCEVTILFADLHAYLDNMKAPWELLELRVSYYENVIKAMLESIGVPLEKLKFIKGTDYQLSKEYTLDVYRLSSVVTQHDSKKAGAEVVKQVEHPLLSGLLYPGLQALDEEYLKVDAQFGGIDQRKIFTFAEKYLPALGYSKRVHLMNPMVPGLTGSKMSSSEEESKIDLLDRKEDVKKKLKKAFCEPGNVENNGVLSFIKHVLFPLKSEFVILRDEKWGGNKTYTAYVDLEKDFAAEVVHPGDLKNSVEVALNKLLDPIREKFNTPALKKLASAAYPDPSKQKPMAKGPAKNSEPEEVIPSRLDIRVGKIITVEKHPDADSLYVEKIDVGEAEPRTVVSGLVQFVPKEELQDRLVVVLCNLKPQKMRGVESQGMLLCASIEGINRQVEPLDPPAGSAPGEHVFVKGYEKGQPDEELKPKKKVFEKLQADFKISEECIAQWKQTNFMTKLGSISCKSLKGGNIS
Also: in the data inactive means no Kd found up to 30 µM.

Sequence of Protein-tyrosine kinase 6 (Q13882 whole entry): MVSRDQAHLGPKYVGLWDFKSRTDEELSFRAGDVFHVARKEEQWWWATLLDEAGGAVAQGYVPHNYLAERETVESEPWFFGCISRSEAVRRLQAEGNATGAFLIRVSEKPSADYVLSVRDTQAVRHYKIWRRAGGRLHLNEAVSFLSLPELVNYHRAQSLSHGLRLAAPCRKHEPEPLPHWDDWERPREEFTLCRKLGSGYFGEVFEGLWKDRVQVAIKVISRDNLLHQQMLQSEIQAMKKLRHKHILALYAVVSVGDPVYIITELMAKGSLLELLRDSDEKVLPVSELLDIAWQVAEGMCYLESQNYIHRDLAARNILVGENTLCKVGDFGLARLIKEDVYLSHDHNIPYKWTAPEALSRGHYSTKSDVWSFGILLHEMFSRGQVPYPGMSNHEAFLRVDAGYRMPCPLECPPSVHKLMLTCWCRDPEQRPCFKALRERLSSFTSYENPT
Sequence of MAP/microtubule affinity-regulating kinase 3 (P27448 whole entry, canonical isoform): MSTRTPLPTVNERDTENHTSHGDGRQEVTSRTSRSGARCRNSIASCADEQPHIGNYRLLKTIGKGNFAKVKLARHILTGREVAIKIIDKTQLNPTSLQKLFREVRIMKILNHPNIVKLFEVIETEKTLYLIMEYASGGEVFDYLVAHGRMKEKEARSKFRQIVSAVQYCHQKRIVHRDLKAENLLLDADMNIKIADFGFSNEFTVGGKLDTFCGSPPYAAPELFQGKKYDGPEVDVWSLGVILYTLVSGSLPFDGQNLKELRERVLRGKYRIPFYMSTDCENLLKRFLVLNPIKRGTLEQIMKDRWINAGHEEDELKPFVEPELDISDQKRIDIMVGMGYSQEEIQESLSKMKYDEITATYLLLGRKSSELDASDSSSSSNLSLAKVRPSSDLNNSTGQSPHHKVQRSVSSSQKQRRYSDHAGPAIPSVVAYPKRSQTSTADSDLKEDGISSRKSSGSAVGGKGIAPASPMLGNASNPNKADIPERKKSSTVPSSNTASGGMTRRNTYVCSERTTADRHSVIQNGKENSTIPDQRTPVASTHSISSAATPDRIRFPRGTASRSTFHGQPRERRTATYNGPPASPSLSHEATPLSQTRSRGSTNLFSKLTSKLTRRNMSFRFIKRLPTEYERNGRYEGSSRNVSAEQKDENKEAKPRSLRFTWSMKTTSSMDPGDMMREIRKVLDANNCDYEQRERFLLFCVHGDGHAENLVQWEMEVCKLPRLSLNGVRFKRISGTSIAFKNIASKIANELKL
Sequence of Casein kinase I isoform delta (P48730 whole entry, canonical isoform): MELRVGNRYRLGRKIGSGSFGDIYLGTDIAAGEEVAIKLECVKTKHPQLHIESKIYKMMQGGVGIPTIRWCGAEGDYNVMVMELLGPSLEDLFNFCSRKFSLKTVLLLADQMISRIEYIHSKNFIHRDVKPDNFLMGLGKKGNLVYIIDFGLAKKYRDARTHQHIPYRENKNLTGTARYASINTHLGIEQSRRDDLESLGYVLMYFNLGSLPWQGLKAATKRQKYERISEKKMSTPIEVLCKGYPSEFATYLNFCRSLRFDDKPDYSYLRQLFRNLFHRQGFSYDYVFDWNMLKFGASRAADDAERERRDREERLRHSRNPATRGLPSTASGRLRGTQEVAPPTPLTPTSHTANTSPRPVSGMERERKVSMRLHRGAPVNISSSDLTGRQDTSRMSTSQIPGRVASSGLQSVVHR
Sequence of Rho-associated protein kinase 2 (O75116 whole entry): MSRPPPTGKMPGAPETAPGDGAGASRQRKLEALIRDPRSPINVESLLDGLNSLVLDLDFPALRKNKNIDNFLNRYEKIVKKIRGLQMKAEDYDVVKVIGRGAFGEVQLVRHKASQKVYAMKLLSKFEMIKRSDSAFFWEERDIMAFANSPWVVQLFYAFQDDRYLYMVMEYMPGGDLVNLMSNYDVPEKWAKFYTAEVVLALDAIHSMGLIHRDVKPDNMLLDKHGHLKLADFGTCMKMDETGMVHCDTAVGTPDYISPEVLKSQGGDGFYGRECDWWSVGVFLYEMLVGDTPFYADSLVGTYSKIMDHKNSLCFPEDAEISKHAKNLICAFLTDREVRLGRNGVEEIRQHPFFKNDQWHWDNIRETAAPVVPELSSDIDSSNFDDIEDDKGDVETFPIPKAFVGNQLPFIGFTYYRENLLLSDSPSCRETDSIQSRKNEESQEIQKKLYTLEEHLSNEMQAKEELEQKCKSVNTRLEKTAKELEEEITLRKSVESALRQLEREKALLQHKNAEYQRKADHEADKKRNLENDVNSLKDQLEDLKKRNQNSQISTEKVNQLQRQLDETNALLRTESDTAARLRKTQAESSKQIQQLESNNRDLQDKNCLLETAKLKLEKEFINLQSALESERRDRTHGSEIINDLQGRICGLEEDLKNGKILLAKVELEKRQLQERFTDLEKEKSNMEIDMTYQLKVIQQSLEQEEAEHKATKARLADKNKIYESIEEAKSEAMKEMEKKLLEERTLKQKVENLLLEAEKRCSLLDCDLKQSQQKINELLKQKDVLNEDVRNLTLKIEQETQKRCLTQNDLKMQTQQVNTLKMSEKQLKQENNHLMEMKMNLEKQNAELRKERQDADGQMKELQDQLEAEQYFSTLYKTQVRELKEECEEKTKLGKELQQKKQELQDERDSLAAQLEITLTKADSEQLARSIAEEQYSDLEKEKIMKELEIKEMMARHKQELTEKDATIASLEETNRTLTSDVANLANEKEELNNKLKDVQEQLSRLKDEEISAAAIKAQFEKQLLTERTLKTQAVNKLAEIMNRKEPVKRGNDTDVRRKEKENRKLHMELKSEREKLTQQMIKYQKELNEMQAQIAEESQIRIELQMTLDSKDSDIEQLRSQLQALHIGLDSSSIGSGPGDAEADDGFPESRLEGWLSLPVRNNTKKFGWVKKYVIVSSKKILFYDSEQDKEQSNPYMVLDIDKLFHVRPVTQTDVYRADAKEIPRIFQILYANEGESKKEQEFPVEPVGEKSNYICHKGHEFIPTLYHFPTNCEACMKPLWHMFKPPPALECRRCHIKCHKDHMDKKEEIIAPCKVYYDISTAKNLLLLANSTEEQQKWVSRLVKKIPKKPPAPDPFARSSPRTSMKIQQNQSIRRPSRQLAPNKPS
Sequence of S-adenosylmethionine synthase isoform type-2 (P31153 whole entry, canonical isoform): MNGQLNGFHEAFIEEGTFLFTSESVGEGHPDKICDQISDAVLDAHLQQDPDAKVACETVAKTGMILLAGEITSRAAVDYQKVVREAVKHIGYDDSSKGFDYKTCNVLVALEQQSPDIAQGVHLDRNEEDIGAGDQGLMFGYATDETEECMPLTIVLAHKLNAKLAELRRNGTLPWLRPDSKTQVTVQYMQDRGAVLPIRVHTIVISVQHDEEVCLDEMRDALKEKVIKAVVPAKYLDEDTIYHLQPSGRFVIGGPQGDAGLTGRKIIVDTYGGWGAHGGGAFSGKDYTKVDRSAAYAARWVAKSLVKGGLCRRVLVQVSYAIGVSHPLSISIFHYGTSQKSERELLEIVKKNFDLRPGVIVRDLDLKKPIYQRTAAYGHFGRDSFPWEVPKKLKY
Sequence of Putative heat shock protein HSP 90-beta 2 (Q58FF8 whole entry): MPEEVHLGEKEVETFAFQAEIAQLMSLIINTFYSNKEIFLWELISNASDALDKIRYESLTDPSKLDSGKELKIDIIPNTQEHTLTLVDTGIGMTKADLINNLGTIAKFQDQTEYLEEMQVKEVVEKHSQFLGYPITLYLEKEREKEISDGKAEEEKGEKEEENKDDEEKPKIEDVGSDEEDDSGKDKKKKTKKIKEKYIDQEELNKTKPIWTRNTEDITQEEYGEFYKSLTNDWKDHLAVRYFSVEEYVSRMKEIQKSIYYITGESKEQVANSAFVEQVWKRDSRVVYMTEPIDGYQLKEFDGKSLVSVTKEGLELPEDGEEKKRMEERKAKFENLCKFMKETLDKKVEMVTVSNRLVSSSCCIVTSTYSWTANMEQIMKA
Sequence of Casein kinase I isoform gamma-1 (Q9HCP0 whole entry, canonical isoform): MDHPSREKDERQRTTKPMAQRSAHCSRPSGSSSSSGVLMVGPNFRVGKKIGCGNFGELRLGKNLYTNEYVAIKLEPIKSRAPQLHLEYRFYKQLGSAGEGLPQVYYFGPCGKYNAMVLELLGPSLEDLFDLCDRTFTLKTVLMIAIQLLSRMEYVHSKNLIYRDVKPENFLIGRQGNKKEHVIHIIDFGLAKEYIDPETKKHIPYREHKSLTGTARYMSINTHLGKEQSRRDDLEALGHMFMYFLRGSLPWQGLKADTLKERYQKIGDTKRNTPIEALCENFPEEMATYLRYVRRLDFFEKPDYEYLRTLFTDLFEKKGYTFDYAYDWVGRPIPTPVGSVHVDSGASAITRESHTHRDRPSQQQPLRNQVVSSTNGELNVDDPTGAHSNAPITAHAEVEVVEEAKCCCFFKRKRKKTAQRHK
Sequence of cAMP-dependent protein kinase catalytic subunit gamma (P22612 whole entry): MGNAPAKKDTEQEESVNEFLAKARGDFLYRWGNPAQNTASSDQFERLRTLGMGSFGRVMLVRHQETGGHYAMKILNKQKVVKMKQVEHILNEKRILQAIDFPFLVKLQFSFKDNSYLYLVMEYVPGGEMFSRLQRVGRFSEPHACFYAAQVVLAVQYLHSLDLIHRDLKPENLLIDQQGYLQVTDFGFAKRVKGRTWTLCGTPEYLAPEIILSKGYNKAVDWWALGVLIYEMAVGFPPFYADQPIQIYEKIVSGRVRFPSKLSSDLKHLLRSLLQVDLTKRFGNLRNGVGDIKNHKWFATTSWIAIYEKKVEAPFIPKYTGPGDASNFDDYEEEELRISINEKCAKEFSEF
Sequence of Mitogen-activated protein kinase 3 (P27361 whole entry): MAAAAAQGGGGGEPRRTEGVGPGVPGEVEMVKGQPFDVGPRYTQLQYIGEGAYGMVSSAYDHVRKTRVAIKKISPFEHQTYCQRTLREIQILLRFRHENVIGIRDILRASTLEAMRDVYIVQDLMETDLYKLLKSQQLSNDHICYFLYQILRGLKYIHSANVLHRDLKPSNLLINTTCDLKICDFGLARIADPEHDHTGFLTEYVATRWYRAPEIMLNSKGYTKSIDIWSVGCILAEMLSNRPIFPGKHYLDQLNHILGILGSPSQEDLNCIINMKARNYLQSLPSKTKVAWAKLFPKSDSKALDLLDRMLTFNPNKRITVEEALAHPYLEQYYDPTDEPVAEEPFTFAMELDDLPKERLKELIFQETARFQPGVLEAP

Row | SMILES | Kd [1] | Kd [2] | Kd [3] | Kd [4] | Kd [5] | Kd [6] | Kd [7] | Kd [8] | Kd [9] | Kd [10] | Kd [11] | Kd [12] | Kd [13]
1 | C[C@]1(O)C[C@@H](c2nc(-c3ccc4ccc(-c5ccccc5)nc4c3)c3c(N)nccn32)C1 [LINSITINIB] | – | – | – | > 30 µM (inactive) | > 30 µM (inactive) | – | – | > 30 µM (inactive) | > 30 µM (inactive) | > 30 µM (inactive) | – | – | > 30 µM (inactive)
2 | CC(C)CC(=O)Nc1[nH]nc2c1CN(C(=O)C1CCN(C)CC1)C2(C)C [PHA-793887] | > 30 µM (inactive) | > 30 µM (inactive) | – | > 30 µM (inactive) | > 30 µM (inactive) | – | > 30 µM (inactive) | > 30 µM (inactive) | – | > 30 µM (inactive) | > 30 µM (inactive) | > 30 µM (inactive) | > 30 µM (inactive)
3 | CCN1CCN(Cc2ccc(Nc3ncc(F)c(-c4cc(F)c5nc(C)n(C(C)C)c5c4)n3)nc2)CC1 [ABEMACICLIB] | > 30 µM (inactive) | > 30 µM (inactive) | > 30 µM (inactive) | > 30 µM (inactive) | > 30 µM (inactive) | > 30 µM (inactive) | > 30 µM (inactive) | > 30 µM (inactive) | > 30 µM (inactive) | > 30 µM (inactive) | > 30 µM (inactive) | > 30 µM (inactive) | > 30 µM (inactive)
4 | O=c1[nH]c([C@@H]2CCCN2)nc2c1oc1ccc(Cl)cc12 | > 30 µM (inactive) | > 30 µM (inactive) | > 30 µM (inactive) | > 30 µM (inactive) | > 30 µM (inactive) | > 30 µM (inactive) | > 30 µM (inactive) | > 30 µM (inactive) | > 30 µM (inactive) | – | > 30 µM (inactive) | > 30 µM (inactive) | > 30 µM (inactive)
5 | C=CC(=O)Nc1cccc(Nc2nc(Nc3ccc(N4CCN(C(C)=O)CC4)cc3OC)ncc2C(F)(F)F)c1 [ROCILETINIB] | > 30 µM (inactive) | > 30 µM (inactive) | > 30 µM (inactive) | > 30 µM (inactive) | > 30 µM (inactive) | > 30 µM (inactive) | > 30 µM (inactive) | > 30 µM (inactive) | – | > 30 µM (inactive) | > 30 µM (inactive) | > 30 µM (inactive) | > 30 µM (inactive)
6 | CCc1cc2c(cc1N1CCC(N3CCOCC3)CC1)C(C)(C)c1[nH]c3cc(C#N)ccc3c1C2=O [ALECTINIB] | > 30 µM (inactive) | > 30 µM (inactive) | > 30 µM (inactive) | > 30 µM (inactive) | > 30 µM (inactive) | > 30 µM (inactive) | > 30 µM (inactive) | > 30 µM (inactive) | > 30 µM (inactive) | > 30 µM (inactive) | > 30 µM (inactive) | > 30 µM (inactive) | > 30 µM (inactive)
7 | Cc1ccc(C(=O)Nc2ccc(Oc3cc4cnn(C)c4cc3-c3cn[nH]c3)c(F)c2)c(=O)n1-c1ccc(F)cc1 [MERESTINIB] | > 30 µM (inactive) | > 30 µM (inactive) | > 30 µM (inactive) | > 30 µM (inactive) | > 30 µM (inactive) | > 30 µM (inactive) | > 30 µM (inactive) | > 30 µM (inactive) | > 30 µM (inactive) | – | > 30 µM (inactive) | > 30 µM (inactive) | > 30 µM (inactive)
8 | O=C(NOC[C@H](O)CO)c1ccc(F)c(F)c1Nc1ccc(I)cc1F [MIRDAMETINIB] | > 30 µM (inactive) | > 30 µM (inactive) | > 30 µM (inactive) | > 30 µM (inactive) | > 30 µM (inactive) | > 30 µM (inactive) | > 30 µM (inactive) | – | > 30 µM (inactive) | > 30 µM (inactive) | > 30 µM (inactive) | > 30 µM (inactive) | > 30 µM (inactive)
9 | COc1ccc(-c2ccc3ncc4c(c3c2)n(-c2ccc(N3CCNCC3)c(C(F)(F)F)c2)c(=O)n4C)cn1 [BGT-226 FREE BASE] | > 30 µM (inactive) | > 30 µM (inactive) | – | > 30 µM (inactive) | > 30 µM (inactive) | > 30 µM (inactive) | > 30 µM (inactive) | > 30 µM (inactive) | – | > 30 µM (inactive) | > 30 µM (inactive) | > 30 µM (inactive) | > 30 µM (inactive)
10 | C=CCN(/C=C1/C(=O)O[C@H](COC)[C@@]2(C)C1=C(O)C(=O)C1=C2[C@H](OC(C)=O)C[C@]2(C)C(=O)CC[C@@H]12)CC=C [SONOLISIB] | > 30 µM (inactive) | > 30 µM (inactive) | > 30 µM (inactive) | > 30 µM (inactive) | > 30 µM (inactive) | > 30 µM (inactive) | > 30 µM (inactive) | > 30 µM (inactive) | – | 0.007 µM | > 30 µM (inactive) | > 30 µM (inactive) | –
11 | C=CC(=O)Nc1cc(Nc2nccc(-c3cn(C)c4ccccc34)n2)c(OC)cc1N(C)CCN(C)C [OSIMERTINIB] | > 30 µM (inactive) | > 30 µM (inactive) | > 30 µM (inactive) | > 30 µM (inactive) | > 30 µM (inactive) | > 30 µM (inactive) | > 30 µM (inactive) | > 30 µM (inactive) | > 30 µM (inactive) | > 30 µM (inactive) | > 30 µM (inactive) | > 30 µM (inactive) | > 30 µM (inactive)
12 | O=C(O)c1ccc2c(c1)nc(Nc1cccc(Cl)c1)c1ccncc12 [SILMITASERTIB] | > 30 µM (inactive) | > 30 µM (inactive) | > 30 µM (inactive) | > 30 µM (inactive) | > 30 µM (inactive) | > 30 µM (inactive) | > 30 µM (inactive) | > 30 µM (inactive) | – | > 30 µM (inactive) | > 30 µM (inactive) | > 30 µM (inactive) | > 30 µM (inactive)

Continued, values first:

Row | Kd [1] | Kd [2] | Kd [3] | Kd [4] | Kd [5] | Kd [6] | Kd [7] | Kd [8] | Kd [9] | Kd [10] | Kd [11] | Kd [12] | Kd [13] | SMILES
13 | > 30 µM (inactive) | > 30 µM (inactive) | > 30 µM (inactive) | > 30 µM (inactive) | > 30 µM (inactive) | > 30 µM (inactive) | > 30 µM (inactive) | > 30 µM (inactive) | > 30 µM (inactive) | > 30 µM (inactive) | > 30 µM (inactive) | > 30 µM (inactive) | > 30 µM (inactive) | Cc1cc(Nc2nc(N[C@@H](C)c3ncc(F)cn3)ncc2Cl)n[nH]1 [AZD-1480]
14 | > 30 µM (inactive) | > 30 µM (inactive) | > 30 µM (inactive) | > 30 µM (inactive) | > 30 µM (inactive) | > 30 µM (inactive) | > 30 µM (inactive) | > 30 µM (inactive) | > 30 µM (inactive) | – | > 30 µM (inactive) | > 30 µM (inactive) | > 30 µM (inactive) | Cn1c(=O)c(F)c(Nc2ccc(I)cc2F)c2c(=O)n(C[C@@H](O)CO)cnc21 [TAK-733]
15 | – | – | – | > 30 µM (inactive) | > 30 µM (inactive) | – | – | > 30 µM (inactive) | > 30 µM (inactive) | > 30 µM (inactive) | – | – | > 30 µM (inactive) | C[C@@]1(C(=O)Nc2ccc(F)nc2)CCCN1c1nc(Nc2cc(C3CC3)n[nH]2)c2cccn2n1 [BMS-754807]
